Patent publication US6562317B2, “Radioactive embolizing compositions” (Micro Therapeutics, Inc., priority 1997, dated 2003)

Assay: Cure of prepolymer injected into 0.1 N NaHCO3 aqueous solution simulating a blood environment
Format: physicochemical
Settings: cyanoacrylate without iridium, same procedure
Protocol: About 0.2 cc of this composition was taken up in a 1 cc syringe through a 21 gage needle and injected into about 150 cc of a 0.1 N NaHCO3 aqueous solution to simulate a blood environment and cure the prepolymer. Upon injection, three small black/gray droplets were formed which immediately fell to the bottom of the container. It took about 15 minutes for the cyanoacrylate to fully cure and to be tack free.

C=C(C#N)C(=O)OCCCC [cyanoacrylate alone, n-butyl cyanoacrylate]
cure time compared with the iridium composition: cured in approximately the same time
